Data on one molecule can be found in patent publication US20070015813A1, “Treatment of protein folding disorders” (QUEEN'S UNIVERSITY AT KINGSTON, priority 2005, published 2007).

The subject of data set [1] is patients suffering from AD. The following applies: ten patients, three months; cited from earlier work.
Data set [2] deals with patients with advanced senile dementia. The following applies: daily Trp administration (24 mg/kg); cited from earlier work.
The test system of the next data set is patients with dementia. The following applies: one month, once daily dosing, ratings of behaviour and functional abilities; cited from earlier work.
For data set [3], the system named is patients with mild to moderate Alzheimer's disease (AD). Kind of data set: Phase IV double-blind randomized placebo-controlled clinical trial of L-tryptophan (Trp). The data set is classed as in vivo, human. The procedure:
A phase IV clinical trial of L-tryptophan (Trp) was carried out to evaluate the amino acid's effect on cognitive abilities in patients with mild to moderate Alzheimer's disease (AD). An earlier trial has been performed which studied Trp administration in patients suffering from AD [Bentham, P W. International Clinical Psychopharmacology, 1990, 5: 261-72]. The present trial expects the possible binding of Trp to the HHQK region of Aβ [D Giulian et al. (1998). Journal of Biological Chemistry 273:29719-26] and subsequent disruption of Aβ plaque formation, whereas the earlier trial was based on neurotransmitter replacement therapy. By administering Trp, levels of its metabolite […], better known as serotonin, were expected to increase, thereby countering deficits of the neurotransmitter experienced by those suffering from AD [Siegel, G J; Agranoff, B W; Albers, R W; Molinoff, P B, Basic Neurochemistry. Fifth ed. 1994, New York: Raven Press, 1054 pp]. Also providing motivation for the trial may have been earlier accounts that Trp was seen to benefit elderly patients with mental disorders [Shaw, D M; Tidmarsh, S F; Karajgi, B M; Sweeney, E A; Williams, S; Elameer, M; Twining, C. British Journal of Psychiatry, 1981, 139: 580-2, Lehmann, J; Persson, S; Walinder, J; Wallin, L. Acta Psychiatrica Scandinavica, 1981, 64: 123-31].
Twelve patients were enrolled in the current clinical trial. Patients were administered 1 g Trp (n=8) or placebo (n=4) twice a day for six months, and their cognitive abilities were assessed, using standardized tests, at baseline, three months and six months. All enrollment and testing was carried out at the Kingston General Hospital, Kingston, Ontario, Canada, under the supervision of the principal investigator, D. F. Weaver, M.D., Ph.D (the protocol is attached as Appendix A). The primary endpoint of the double-blind trial was to determine whether patients receiving Trp outperformed the controls, either by experiencing an improvement in cognition or a reduction in deterioration in cognitive abilities relative to the placebo group.
Eligible participants were those who met the clinical criteria of probable Alzheimer's disease as described in the Diagnostic and Statistical Manual of Mental Disorders, fourth edition (DSM-IV) [Anonymous, Diagnostic and Statistical Manual of Mental Disorders, 4th Edition (DSM-IV). 1994, Washington, D.C.: American Psychiatric Association] and in the National Institute of Neurologic and Communicative Disorders and Stroke and the Alzheimer's Disease Related Disorders Association (NINCDS-ADRDA) [McKhann, G; Drachman, D; Folstein, M; Katzman, R; Price, D; Stadlan, E M. Neurology, 1984, 34: 939-44]. Inclusion criteria also included: mild to moderate severity of dementia, as reflected by a Mini-Mental State Examination (MMSE) [Folstein, M F; Folstein, S E; McHugh, P R. J Psychiatr Res, 1975, 12: 189-98] score of 14 to 26; minimum one-year duration of symptoms; minimum age of 50 years; living at home or in an institution provided they had caregivers capable of attending each clinic visit and ensuring the administration of medication; able to perform the psychometric tests required; reasonably good nutritional status; vital signs (blood pressure and heart rate in sitting and standing positions), urinalysis, physical examination, and neurological evaluation must yield results within normal limits or determined as not clinically significant by the study physician for the patient's age and sex.
This study was a 6-month, double-blind randomized trial in which eligible participants were randomly assigned to receive either Trp (1000 mg, twice daily) or an identical-appearing placebo. Recruiters were unaware of the assignment. […]

The mark [4] stands for this setting: Trp 1 g twice a day (n = 8), 6 months, negative change indicates improvement.
Where [5] appears, read: Trp 1 g twice a day (n = 8), 6 months, positive change indicates improvement.
Setting [6] is: Trp (n = 8) vs. placebo (n = 4), 3 months.
Where [7] appears, read: Trp (n = 8) vs. placebo (n = 4), 6 months.

With `N[C@@H](Cc1c[nH]c2ccccc12)C(=O)O` [Trp, L-tryptophan], in data set [1], the “correlation between the increase in Trp plasma levels and the increase in cognitive test scores” value is on record as “statistically significant correlation”. In data set [2], the “patients with “unequivocal improvement in blind global assessment”” value is recorded as “six of 29”. Besides, the “benefit in patients with dementia” value in the data set on patients with dementia is given as “of no benefit”. In addition, in data set [3] (Trp 1 g twice a day (n = 8), 3 months, negative change indicates improvement), the “ADAS-Cog, mean (SE) change from baseline after 3 months” value is on record as −0.8 (0.9). Besides, in data set [3] (Trp 1 g twice a day (n = 8), 3 months, positive change indicates improvement), the “MMSE, mean (SE) change from baseline after 3 months” value is reported as 0.8 (0.4). In data set [3] (setting [4]), the “ADAS-Cog, mean (SE) change from baseline after 6 months” value is −2.8 (1.4); the “FAQ, mean (SE) change from baseline after 6 months” value was 3.2 (2.0); the “NPI, mean (SE) change from baseline after 6 months” value is given as 3 (3). In addition, in data set [3] (setting [5]), the “Clock-drawing, mean (SE) change from baseline after 6 months” value is 1.1 (0.4); the “DAD, mean (SE) change from baseline after 6 months” value is recorded as 1.5 (1.8); the “MMSE, mean (SE) change from baseline after 6 months” value was 1.8 (0.5). In addition, the “ADCS-CGIC, mean (SE) score at 6 months” value in data set [3] (Trp 1 g twice a day (n = 8), score at 6 months, not change from baseline, lower score indicates improvement) is given as 3.6 (0.3). Also, the “adverse events reported by patients” value in data set [3] (Trp 1 g twice a day, 6 months) is “No adverse events”. In data set [3] (setting [6]), the “ADAS-Cog, treatment difference (Trp vs. placebo) after 3 months” value was determined as 1.3 and the “MMSE, treatment difference (Trp vs. placebo) after 3 months” value is on record as 2.0. For the same molecule, in data set [3] (setting [7]), the “ADAS-Cog, treatment difference (Trp vs. placebo) after 6 months” value is reported as −6.3; the “ADCS-CGIC, treatment difference (Trp vs. placebo) at 6 months” value stood at 2.9; the “Clock-drawing, treatment difference (Trp vs. placebo) after 6 months” value came to 2.9; the “DAD, treatment difference (Trp vs. placebo) after 6 months” value was found to be 12.8. Besides, in data set [3] (setting [7]), the “FAQ, treatment difference (Trp vs. placebo) after 6 months” value is listed as −2.0; the “MMSE, treatment difference (Trp vs. placebo) after 6 months” value is 5.0; the “NPI, treatment difference (Trp vs. placebo) after 6 months” value was −19. The “patients depressed (Cornell Depression Index score of >5) after 6 months of treatment” value in data set [3] (Trp group (two patients), 6 months) stood at 25%. Also, the “sleep problems (score of >4 on the Pittsburgh Sleep Quality)” value in data set [3] (at baseline or at 6 months) was “No sleep problems”.
